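Test compounds were applied to cells in 96-well plates for 48 hours at 5 doses. GI50: concentration for 50% inhibition of growth. The concentration for full growth arrest is given as TGI.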
Experiments:
Assay in all cases: inhibition of tumour cell growth, NCI panel, 48 h
[1] = system: MDA-MB-468 breast
[2] = system: ACHN renal
[3] = system: HOP-92 NSCLC
[4] = system: RPMI-8226 leukemia
[5] = system: RXF 393 renal
[6] = system: HT29 colon
[7] = system: SR leukemia
[8] = system: EKVX NSCLC
[9] = system: CCRF-CEM leukemia
[10] = system: HCT-116 colon
[11] = system: HOP-62 NSCLC
[12] = system: OVCAR-8 ovarian
[13] = system: HL-60(TB) leukemia
[14] = system: IGROV1 ovarian
[15] = system: PC-3 prostate
[16] = system: NCI-H460 lung
[17] = system: A498 renal
[18] = system: TK-10 renal
[19] = system: HCT-15 colon
[20] = system: OVCAR-5 ovarian
[21] = system: OVCAR-4 ovarian
[22] = system: A549 NSCLC
[23] = system: DU-145 prostate
[24] = system: SK-MEL-28 melanoma
[25] = system: HS 578T breast
[26] = system: SF-268 CNS
[27] = system: OVCAR-3 ovarian
[28] = system: U251 CNS
[29] = system: SF-539 CNS
[30] = system: K-562 leukemia
[31] = system: LOX IMVI melanoma
[32] = system: NCI/ADR-RES ovarian
[33] = system: MALME-3M melanoma
[34] = system: NCI-H226 lung
[35] = system: MDA-MB-435
[36] = system: SK-OV-3 ovarian
[37] = system: M14 melanoma
[38] = system: NCI-H522 lung
[39] = system: SW-620 colon
[40] = system: UACC-62 melanoma
[41] = system: HCC-2998 colon
[42] = system: SF-295 CNS
[43] = system: SNB-19 CNS
[44] = system: NCI-H23 lung
[45] = system: BT-549 breast
[46] = system: MOLT-4 leukemia
[47] = system: T-47D breast
[48] = system: MCF7 breast
[49] = system: KM12 colon
[50] = system: CAKI-1 renal
[51] = system: COLO 205 colon
[52] = system: SN12C renal
[53] = system: SK-MEL-5 melanoma
[54] = system: UACC-257 melanoma
[55] = system: 786-0 renal

Structure (SMILES): c1n[nH]cc1-c1nc2ccc3[nH]ncc3c2c2c1CC1(CC2)COC1
- GI50 [1]: 3.53 µM
- TGI [1]: 13 µM
- GI50 [2]: 16.8 µM
- TGI [2]: > 100 µM
- GI50 [3]: 23.1 µM
- TGI [3]: 63.1 µM
- GI50 [4]: 21.3 µM
- TGI [4]: 68 µM
- GI50 [5]: 4.52 µM
- TGI [5]: 17.6 µM
- GI50 [6]: 26.3 µM
- TGI [6]: > 100 µM
- GI50 [7]: 3.36 µM
- TGI [7]: 16.9 µM
- GI50 [8]: 22.4 µM
- TGI [8]: 83.6 µM
- GI50 [9]: 29.9 µM
- TGI [9]: > 100 µM
- GI50 [10]: 6.02 µM
- TGI [10]: 37.7 µM
- GI50 [11]: 18.2 µM
- TGI [11]: 47.3 µM
- GI50 [12]: 16.3 µM
- TGI [12]: 35.5 µM
- GI50 [13]: 13.6 µM
- TGI [13]: 39.3 µM
- GI50 [14]: 19.3 µM
- TGI [14]: 57.3 µM
- GI50 [15]: 26.5 µM
- TGI [15]: > 100 µM
- GI50 [16]: 17.1 µM
- TGI [16]: 35.9 µM
- GI50 [17]: 15 µM
- TGI [17]: 30.9 µM
- GI50 [18]: 15 µM
- TGI [18]: 67.6 µM
- GI50 [19]: 23.2 µM
- TGI [19]: > 100 µM
- GI50 [20]: 25.6 µM
- TGI [20]: 77.7 µM
- GI50 [21]: 25 µM
- TGI [21]: 70.4 µM
- GI50 [22]: 27.8 µM
- TGI [22]: > 100 µM
- GI50 [23]: 26.2 µM
- TGI [23]: 95.5 µM
- GI50 [24]: 12.9 µM
- TGI [24]: 27.7 µM
- GI50 [25]: 8.53 µM
- TGI [25]: 39.3 µM
- GI50 [26]: 16.2 µM
- TGI [26]: 40.2 µM
- GI50 [27]: 13.7 µM
- TGI [27]: 59.2 µM
- GI50 [28]: 17.7 µM
- TGI [28]: > 100 µM
- GI50 [29]: 12.2 µM
- TGI [29]: 25.5 µM
- GI50 [30]: 13.7 µM
- TGI [30]: > 100 µM
- GI50 [31]: 11.3 µM
- TGI [31]: 24.6 µM
- GI50 [32]: > 100 µM
- TGI [32]: > 100 µM
- GI50 [33]: 15.7 µM
- TGI [33]: 30.1 µM
- GI50 [34]: 16 µM
- TGI [34]: 37.1 µM
- GI50 [35]: 14.4 µM
- TGI [35]: 32.4 µM
- GI50 [36]: 5.9 µM
- TGI [36]: 34.3 µM
- GI50 [37]: 12.9 µM
- TGI [37]: 28 µM
- GI50 [38]: 3.43 µM
- TGI [38]: 17.1 µM
- GI50 [39]: 4.98 µM
- TGI [39]: 52.6 µM
- GI50 [40]: 5.76 µM
- TGI [40]: 18.7 µM
- GI50 [41]: 15.5 µM
- TGI [41]: 40.6 µM
- GI50 [42]: 23.4 µM
- TGI [42]: 58.4 µM
- GI50 [43]: 17.3 µM
- TGI [43]: 68.1 µM
- GI50 [44]: 15.1 µM
- TGI [44]: 32.7 µM
- GI50 [45]: 4.09 µM
- TGI [45]: 16.6 µM
- GI50 [46]: 15.5 µM
- TGI [46]: 48.2 µM
- GI50 [47]: 12.7 µM
- TGI [47]: 57.3 µM
- GI50 [48]: 20.4 µM
- TGI [48]: 69.5 µM
- GI50 [49]: 22.3 µM
- TGI [49]: 51.8 µM
- GI50 [50]: 19.2 µM
- TGI [50]: 86.5 µM
- GI50 [51]: 6.13 µM
- TGI [51]: 21.2 µM
- GI50 [52]: 13.9 µM
- TGI [52]: 38 µM
- GI50 [53]: 16.3 µM
- TGI [53]: 30.1 µM
- GI50 [54]: 17 µM
- TGI [54]: 39 µM
- GI50 [55]: 13.4 µM
- TGI [55]: 32.7 µM

Structure (SMILES): CC(=O)Nc1ccc(-n2cnc3cc(-c4ccc(O)cc4)ccc32)cc1F
- GI50 [1]: 1.25 µM
- TGI [1]: 4.68 µM
- GI50 [2]: 6.33 µM
- TGI [2]: > 100 µM
- GI50 [3]: 23.2 µM
- TGI [3]: > 100 µM
- GI50 [4]: 3.32 µM
- TGI [4]: 16.4 µM
- GI50 [5]: 1.94 µM
- TGI [5]: 6.14 µM
- GI50 [6]: 3.86 µM
- TGI [6]: > 100 µM
- GI50 [7]: 0.377 µM
- TGI [7]: 27 µM
- GI50 [8]: 6.04 µM
- TGI [8]: > 100 µM
- GI50 [9]: 3.01 µM
- TGI [9]: > 100 µM
- GI50 [10]: 4.21 µM
- TGI [10]: > 100 µM
- GI50 [11]: 4.53 µM
- TGI [11]: > 100 µM
- GI50 [12]: 3.48 µM
- TGI [12]: > 100 µM
- GI50 [13]: 1.23 µM
- TGI [13]: 3.85 µM
- GI50 [14]: 6.21 µM
- TGI [14]: > 100 µM
- GI50 [15]: 3.66 µM
- TGI [15]: > 100 µM
- GI50 [16]: 3.38 µM
- TGI [16]: > 100 µM
- GI50 [17]: > 100 µM
- TGI [17]: > 100 µM
- GI50 [18]: 49.5 µM
- TGI [18]: > 100 µM
- GI50 [19]: 0.831 µM
- TGI [19]: > 100 µM
- GI50 [20]: 6.22 µM
- TGI [20]: > 100 µM
- GI50 [21]: > 100 µM
- TGI [21]: > 100 µM
- GI50 [22]: 4.77 µM
- TGI [22]: > 100 µM
- GI50 [23]: 4.33 µM
- TGI [23]: > 100 µM
- GI50 [24]: 29.7 µM
- TGI [24]: > 100 µM
- GI50 [25]: 2.61 µM
- TGI [25]: > 100 µM
- GI50 [26]: 9.66 µM
- TGI [26]: > 100 µM
- GI50 [27]: 3.06 µM
- TGI [27]: > 100 µM
- GI50 [28]: 3.19 µM
- TGI [28]: > 100 µM
- GI50 [30]: 0.496 µM
- TGI [30]: > 100 µM
- GI50 [31]: 6.43 µM
- TGI [31]: > 100 µM
- GI50 [32]: 2.78 µM
- TGI [32]: > 100 µM
- GI50 [33]: 3.35 µM
- TGI [33]: > 100 µM
- GI50 [34]: 83.2 µM
- TGI [34]: > 100 µM
- GI50 [36]: 5.05 µM
- TGI [36]: > 100 µM
- GI50 [37]: 3.39 µM
- TGI [37]: > 100 µM
- GI50 [38]: 1.63 µM
- TGI [38]: 4.14 µM
- GI50 [39]: 3.01 µM
- TGI [39]: > 100 µM
- GI50 [40]: 2.55 µM
- TGI [40]: > 100 µM
- GI50 [41]: 5.6 µM
- TGI [41]: > 100 µM
- GI50 [42]: 3.34 µM
- TGI [42]: > 100 µM
- GI50 [43]: 4.73 µM
- TGI [43]: > 100 µM
- GI50 [44]: 4.77 µM
- TGI [44]: > 100 µM
- GI50 [45]: 27 µM
- TGI [45]: > 100 µM
- GI50 [46]: 2.67 µM
- TGI [46]: > 100 µM
- GI50 [47]: 4.02 µM
- TGI [47]: > 100 µM
- GI50 [48]: 2.45 µM
- TGI [48]: > 100 µM
- GI50 [49]: 3.22 µM
- TGI [49]: > 100 µM
- GI50 [50]: > 100 µM
- TGI [50]: > 100 µM
- GI50 [51]: 3.47 µM
- TGI [51]: > 100 µM
- GI50 [52]: 5.8 µM
- TGI [52]: > 100 µM
- GI50 [53]: 4.09 µM
- TGI [53]: > 100 µM
- GI50 [54]: 21.5 µM
- TGI [54]: > 100 µM
- GI50 [55]: 6.8 µM
- TGI [55]: > 100 µM
